Experimental data as given in publication PMC11513920, “Building Metabolically Stable and Potent Anti-HIV Thioether-Lipid Analogues of Tenofovir Exalidex: A thorough Pharmacological Analysis” (Journal of Medicinal Chemistry, 2024).

Key:
[1] = Mouse liver microsome stability; conditions: CD-1, mouse, microsomes
Protocol: Human liver microsomes (HLMs, 20 mg/mL) and CD-1 mouse liver microsomes (MLMs, 20 mg/mL) were purchased from Xenotech. NADPH was purchased from Sigma-Aldrich and prepared in 10 mM stock solutions of distilled H2O (Invitrogen UltraPure). […] Test compounds and positive controls were initially dissolved in MeOH to make 10 mM stock solutions. Sample solutions were then further diluted in 70/30 MeOH/H2O to 500 μM. Next, the reactions were prepared by mixing human or mouse liver microsomes (55 μL) with potassium phosphate buffer (100 mM, 928 μL) in 1.5 mL Eppendorf tubes. The test compounds (6.6 μL of 500 μM solution) were subsequently added to the suspensions, and the reaction mixtures were incubated at 37 °C for 5 min. Afterward, the liver microsome reactions were initiated with 110 μL of 10 mM NADPH and further incubated at 37 °C for the designated time course of the study. […] Each test compound was run in tandem with positive and negative control experiments for quality assurance. Positive control reactions were conducted at a final volume of 550 μL for a single run of each time point.
For both LM and plasma stability assays, each data point was analyzed in duplicate using in-between blank washes to avoid carry over and to equilibrate the column for the subsequent runs. Averages of these duplicate for individual compounds at each time point were then normalized to the data at 0 min, representing 100% test compound remaining or 0% metabolism. Half-lives (t1/2) were calculated by plotting ln of % test compound remaining versus time and performing linear regression to determine slope.
Metabolic Stability Assays
Liver Microsome Stability
Liver Microsome Stability Assay Setup Example
Quenching Mixture: 100 µL MeOH with ISTD (2 µM d5-7-ethoxycoumarin).
Final Volume After Quenching: 200 µL (100 µL from reaction mixture + 100 µL quencher
solution; ISTD final concentration of 1.0 µM).

Mouse plasma stability = type: in vitro ADME; conditions: for mouse plasma t1/2: 3 μM, 37 °C, 240 min course; for remaining at 4 h, 3 μM / half-life at 3 μM: male, BALB/C, mouse, plasma; for half-life at 3 μM: read-out: in vitro mouse plasma stability t1/2
Protocol: Human plasma (lithium heparin (LiHep) mixed, gender pooled, 0.2 μm filtered) and mouse plasma (BALB/C, LiHep mixed, male pooled, 0.2 μm filtered) were purchased from BioIVT. Procaine (Sigma-Aldrich) served as a positive control for both human and mouse plasma experiments. […] Next, the human or mouse plasma (994 μL) was aliquoted into 1.5 mL Eppendorf tubes with duplicates (reactions A and B) being prepared for each compound. The plasma was then incubated at 37 °C for 10 min. […] This procedure provided duplicate experiments with a final volume of 1000 μL (<0.2% organic solvent content) and a final test compound concentration of 3 μM. Aliquots (100 μL) were removed from each reaction mixture at 0, 30, 60, 120, and 240 min time intervals and quenched with 150 μL of cold ISTD solution (2 μM 7-ethoxy-d5-coumarin in MeOH). […] The positive control reaction was conducted at a final volume of 1000 μL for a single run of each time point. Finally, the negative control experiment was conducted with test compounds in Dulbecco’s phosphate buffered saline without calcium and magnesium (DPBS, Fisher Scientific, 143 μL) and analyzed at the 240 min time point.
Plasma Stability Assay Setup Example
Test Compound: 994 µL Human or Mouse Plasma + 6.0 µL TC (500 µM, Vial A).
994 µL Human or Mouse Plasma + 6.0 µL TC (500 µM, Vial B).
Positive Control: 994 µL Human or Mouse Plasma + 6.0 µL Procaine (500 µM).
Negative Control: 142 µL DPBS (1X, pH 7.1-7.3) + 0.9 µL TC (500 µM).
Quenching Mixture: 150 µL MeOH with ISTD (2 µM d5-7-ethoxycoumarin).
Final Volume After Quenching: 250 µL (100 µL from reaction mixture and 150 µL quencher
solution; ISTD final concentration of 1.2 µM). […]

[2] = relative percent remaining at 240 min

## C[C@H](Cn1cnc2c(N)ncnc21)OCP(=O)(O)OCCCSCCCCCCCCCCCCC1CCCCC1.N [16h]
[1]
  half-life at 3 μM: > 2 h
  remaining at 2 h, 3 μM: > 95%
Mouse plasma stability
  mouse plasma t1/2: > 4 h
  half-life at 3 μM: > 4 h
Mouse plasma stability; [2]
  remaining at 4 h, 3 μM: 71%

## CCCCCCCCCCCCCCCCSCCCOP(=O)(O)CO[C@H](C)Cn1cnc2c(N)ncnc21.N [2a]
[1]
  half-life at 3 μM: > 2 h
  remaining at 2 h, 3 μM: > 95%
Mouse plasma stability
  mouse plasma t1/2: > 4 h
  half-life at 3 μM: > 4 h
Mouse plasma stability; [2]
  remaining at 4 h, 3 μM: 95%
  mouse plasma % remaining: > 95%

## C[C@H](Cn1cnc2c(N)ncnc21)OCP(=O)(O)OCCCSCCCCCCCCCCCCc1ccc(F)cc1.N [16g]
[1]
  half-life at 3 μM: > 2 h
  remaining at 2 h, 3 μM: 88%
Mouse plasma stability
  mouse plasma t1/2: > 4 h
  half-life at 3 μM: > 4 h
Mouse plasma stability; [2]
  remaining at 4 h, 3 μM: > 95%
